This note sets out measurements from PubChem BioAssay (NCI).

What all share (experiment): growth of human tumour cells (NCI), 48 h
The subject of assay [1] is TK-10 renal.
In assay [2] the test system is SR leukemia.
Assay [3] has as its system KM12 colon.
For assay [4], the system named is M14 melanoma.
The test system of assay [5] is A549 NSCLC.
The subject of assay [6] is SK-OV-3 ovarian.
The subject of assay [7] is HCT-15 colon.
For assay [8], the system named is UO-31 renal.
For assay [9], the system named is HCC-2998 colon.
For assay [10], the system named is MDA-MB-231 breast.

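Growth conditions: 96-well plates. Treatment: test compound, 48 hours, 5 concentrations. Analysis: linear interpolation between bracketing concentrations; unreached endpoints set to highest concentration. TGI is the concentration that stops growth completely.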 Where only a bound is given, the exact number is not on record here.

On to `COc1ccc(Cc2nc3cc(C(F)(F)F)ccc3n2C[C@@H]2CCCN3CCCCC23)cc1` (stereo not given in full), for which the TGI in [1] was 24.2 µM; in assay [2], greater than 100 µM; in [3] it was 27.4 µM; in assay [4], 7.14 µM; in assay [5], 24.7 µM; in [6], 28.4 µM. The TGI in [7] came to 30.8 µM; in assay [8], 0.166 µM; in assay [9], 5.94 µM; in assay [10], 25.2 µM.

Take `CC12CCC(C(=Nc3ccc([N+](=O)[O-])cc3)C1=O)C2(C)C` (stereo not given): the TGI in assay [1] is 59 µM; in [2], 59.3 µM; in assay [3], 92.9 µM; in [4], greater than 100 µM; in [5], greater than 100 µM; in [6], greater than 100 µM. Also, the TGI in [7] is greater than 100 µM; in [8], greater than 100 µM; in [9], 38.2 µM; in [10], 76.6 µM.

Consider `CCO/C=N\C1=C(C#N)SC2=N/C(=C\c3ccco3)C(=O)N21`, for which the TGI in assay [1], in [2], in [3], in assay [4], in assay [5] and in [6] was greater than 100 µM in each case. For the same molecule, the TGI in [7], in [8], in assay [9] and in [10] was greater than 100 µM each time.
